Like-named read-outs stand apart in the source and are kept apart here.
What was measured:
[1] = test system: C3(1)‐Tag cells; experiment: Cell viability assay of C3Tag cells; format: cell-based, murine; conditions: Mus musculus; 72 h, Hoechst stain, N = 2
[2] = test system: MDA‐MB‐231 or SUM159 cells; experiment: Caspase‐3/7 activity assay and PARP cleavage; format: cell-based, human; conditions: for caspase‐3/7 activity: 24 h, 10 μM ONC201, 150 nM TR‐57, 100 nM TR‐107, 100 nM staurosporine; for PARP cleavage: data not shown
Method: […]. The samples were collected in lysis buffer (50 mM HEPES [pH: 7.4], 5 mM CHAPS, and 5 mM DTT), and caspase activity was measured by monitoring fluorescence (ex/em: 360/460 nm) using a SpectraMax i3x (Molecular Devices).

[3] = Pharmacokinetic analysis in ICR mice; format: in vivo, mouse; conditions: for bioavailability: 10 mg/kg oral vs 2.0 mg/kg i.v., read-out: F% (oral bioavailability)
Method: Samples were placed in tubes containing heparin sodium and stored on ice until centrifuged. Blood samples were centrifuged at 6800g for 6 min at 2–8°C within 1 h following sample collection and stored at −80°C. Proteins from plasma sample aliquots (20 μl) were precipitated by the addition of MeOH (400 μl) containing an internal standard (tolbutamide,100 ng/ml), vortexed for 1 min, and centrifuged at 18 000g for 7 min. The supernatant (200 μl) was transferred to 96 well plates for analysis.
Analysis of samples was conducted as follows. […] The PK parameters including Area Under the Curve (AUC[0–∞]) elimination half‐life (t 1/2), maximal plasma concentration (C max), and oral bioavailability (F%) were analyzed by noncompartmental methods.

[4] = cited from earlier work
[5] = test system: MDA‐MB‐231 cells; experiment: Cell viability (total cell count, Hoechst stain) in MDA‐MB‐231 cells; format: cell-based, human; conditions: Homo sapiens, MDA-MB-231, 72 h
[6] = test system: MDA‐MB‐231 and SUM159 cells; experiment: Immunoblotting for mitochondrial proteins; format: cell-based, human; conditions: 100 nM TR‐107, 150 nM TR‐57, or 10 μM ONC201
Method: Cell lysates were clarified and immunoblotted as described earlier.[45] Membranes were incubated with primary antibodies (Appendix S1) diluted 1:1000 in 1% fish gelatin (Sigma‐Aldrich, G7041)/TBST overnight at 4°C, removed, washed 3 × 5 min in TBST, and placed in their respective 2° antibodies (1:10 000 dilution in 5% milk/TBST) for 1 h. […] Acquired images were processed/quantified using Image Lab software (BioRad) or Image Studio Lite (LI‐COR).

[7] = test system: SUM159 cells; experiment: Cell viability (total cell count, Hoechst stain) in SUM159 cells; format: cell-based; conditions: Homo sapiens, WT cells, 72 h, mean N = 3
Method: Human TNBC cell line SUM159 was a generous gift from Dr. Gary Johnson (the University of North Carolina at Chapel Hill). MDA‐MB‐231 (WT and CLPP‐KO) cells were provided by Dr. Stanley Lipkowitz (National Cancer Institute). MDA‐MB‐231 cells were cultured in RPMI‐1640 media (Gibco, 11875‐093) supplemented with 10% fetal bovine serum (FBS; VWR‐Seradigm, 97068‐085), and 1% antibiotic–antimycotic (anti/anti; ThermoFisher Scientific, 15240062). SUM159 cells were cultured in Dulbecco's modified Eagle's medium: Nutrient Mixture F‐12 (DMEM/F12; Gibco, 11330‐032) supplemented with 5% FBS, 5 μg/ml insulin (Gibco, 12585014), 1 μg/ml hydrocortisone, and 1% anti/anti. Cells were maintained at 5% CO2 and 37°C and periodically tested for mycoplasma.
Total cell counting assays were performed by seeding MDA‐MB‐231 cells (WT and ClpP‐KO; 4000 cells/well) or SUM159 (WT and ClpP‐KO; 1000 cells/well) in a 96‐well plate (Perkin Elmer, 6005050) and allowed to adhere overnight. The growth medium was then aspirated and replaced with 100 μl of growth medium supplemented with the drug at concentrations indicated in the figure or figure legends. Cells treated with vehicle control (0.1% DMSO, Sigma‐Aldrich D2650) were used as a negative control in all experiments, and cells were incubated with drug‐containing media for 24, 48, or 72 h as indicated in figure legends. Media was then aspirated and replaced with 100 μl Dulbecco's phosphate‐buffered saline (DPBS Gibco, 14190‐144) containing 1 μg/ml Hoechst stain (ThermoFischer Scientific, H3570) and allowed to incubate at 37°C for 30 min. The total cell number was then quantified using the Celigo Imaging Cytometer (Nexcelom).

[8] = molecular target: purified recombinant human ClpP (Homo sapiens, UniProt Q16740); experiment: In vitro ClpP activity assay (casein‐FITC degradation); format: biochemical; conditions: relative to DMSO, read-out: EC50 (nM) ClpP activation
purified recombinant human ClpP, sequence (Q16740 57-277): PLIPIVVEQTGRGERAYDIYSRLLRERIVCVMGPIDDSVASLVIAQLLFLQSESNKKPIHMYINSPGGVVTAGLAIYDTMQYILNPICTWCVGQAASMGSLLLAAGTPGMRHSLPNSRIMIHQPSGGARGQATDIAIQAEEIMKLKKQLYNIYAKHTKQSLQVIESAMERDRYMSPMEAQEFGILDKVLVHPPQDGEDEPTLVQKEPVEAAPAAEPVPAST
Method: Measurement of in vitro activity of purified recombinant human ClpP was performed with a slight modification to the method previously described.[46] Briefly, ClpP activity was measured through the degradation of casein‐FITC (Sigma‐Aldrich, C0528) in the presence of indicated compounds. […] Enzyme and compounds were mixed and incubated in assay buffer for 30 min before adding casein‐FITC substrate. […] Linear slope of fluorescence signal was used to measure ClpP activity and normalized to DMSO control, expressed as RFU/h.

[9] = male, mouse, plasma, iv, ICR mice, 2.0 mg/kg i.v.
[10] = male, mouse, plasma, iv, ICR mice, 2.0 mg/kg i.v., read-out: C max
[11] = male, mouse, plasma, iv, ICR mice, 2.0 mg/kg i.v., read-out: T 1/2 (converted)
[12] = male, mouse, plasma, ICR mice, 10 mg/kg oral, read-out: C max
[13] = male, mouse, plasma, ICR mice, 10 mg/kg oral, read-out: T 1/2 (converted)
[14] = WT cells, Hoechst stain, mean N = 3, read-out: IC50 (nM) MDA-MB-231
[15] = male, mouse, plasma, iv, ICR mice, 2.0 mg/kg i.v., read-out: C max (mg/ml)
[16] = male, mouse, plasma, ICR mice, 10 mg/kg oral
[17] = male, mouse, plasma, ICR mice, 10 mg/kg oral, read-out: C max (mg/ml)

Structure (SMILES) | AUC(0-inf) [3, 9] [µg·h/mL] | Cmax [3, 10] [µM] | half-life [3, 11] [h] | bioavailability ([3]; male, mouse, plasma, ICR mice) [%] | Cmax [3, 12] [µM] | half-life [3, 13] [h] | IC50 [7] [nM] | IC50 [5, 14] [nM] | EC50 [8] [nM] | Cmax [3, 15] [µg/mL] | Cmax [3, 17] [µg/mL] | also measured
CC(=O)O[C@H]1C(=O)[C@@]2(C)[C@H]([C@H](OC(=O)c3ccccc3)[C@]3(O)C[C@H](OC(=O)[C@H](O)[C@@H](NC(=O)c4ccccc4)c4ccccc4)C(C)=C1C3(C)C)[C@]1(OC(C)=O)CO[C@@H]1C[C@@H]2O [Paclitaxel, paclitaxel, reference compound] |  |  |  |  |  |  |  |  |  |  |  | IC50 [1]: 0.014 µM
CN[C@@H]1C[C@H]2O[C@@](C)([C@@H]1OC)n1c3ccccc3c3c4c(c5c6ccccc6n2c5c31)C(=O)NC4 [Staurosporine, staurosporine, reference compound] |  |  |  |  |  |  |  |  |  |  |  | caspase‐3/7 activity [2]: strong increase
Cc1ccccc1CN1C(=O)C2=C(CCN(Cc3ccccc3)C2)N2CCN=C12 [ONC201, reference compound] | 0.0507 | 0.31 | 0.26 | 1.2 | 0.023 | 0.31 |  |  |  |  |  | increase in exposure (AUC) vs 10 mg/kg oral ([3]; 25 mg/kg oral): 46 X; AUC (0–∞) ([3]; ICR mice, 10 mg/kg oral): 0.00313 µg·h/mL; Cmax ([3]; male, mouse, in vivo, iv, ICR mice, 2.0 mg/kg i.v., read-out: C max (mg/ml)): 0.122 µg/mL; Cmax ([3]; male, mouse, in vivo, ICR mice, 10 mg/kg oral, read-out: C max (mg/ml)): 0.00899 µg/mL; Cmax ([3]; male, mouse, in vivo, ICR mice, 25 mg/kg oral, blood collection 0.083–4 h, read-out: C max (mg/ml)): 0.195 µg/mL; AUC(0-inf) ([3]; male, mouse, plasma, ICR mice, 25 mg/kg oral, blood collection 0.083–4 h): 0.145 µg·h/mL; Cmax ([3]; male, mouse, plasma, ICR mice, 25 mg/kg oral, blood collection 0.083–4 h, read-out: C max): 0.5 µM; half-life ([3]; male, mouse, plasma, ICR mice, i.v. 2 mg/kg and oral 10 mg/kg arms, read-out: t 1/2 (range over study arms)): 0.26 to 0.31 h; reported t 1/2 ([4]; in mice, higher doses): 6.4 h; IC50 ([5]; media containing galactose, read-out: IC50 (nM) Galactose): 350 nM; IC50 ([5]; media containing glucose, read-out: IC50 [glucose]): 1700 nM; caspase‐3/7 activity [2]: no increase; PARP cleavage [2]: no increase; TUFM and TFAM protein levels by 24 h [6]: complete or near‐complete loss; time at which TUFM and TFAM protein levels began to decline [6]: ~ 6 h
N#Cc1cccc(CC2CCC3=C(C2)C(=O)N(Cc2ccc(Cl)cc2)C2=NCCN23)c1 (stereo not shown) [TR‐122] |  |  |  |  |  |  | 3500 | 2600 | 1100 |  |  | 
N#Cc1cccc(CN2CCC3=C(C2)C(=O)N(Cc2ccc(C(F)(F)F)cc2)C2=NCCCN23)c1 [TR‐98] |  |  |  |  |  |  | 24 | 21 | 310 |  |  | 
N#Cc1cccc(CN2CCC3=C(C2)C(=O)N(Cc2ccc(Cl)cc2)C2=NCCN23)c1 [TR‐65] | 0.351 | 1.5 | 0.73 | 33 | 0.67 | 0.95 |  |  |  | 0.636 | 0.294 | AUC(0-inf) [3, 16]: 0.584 µg·h/mL
O=C1C2=C(CCN(Cc3ccccc3)C2)N2CCN=C2N1Cc1ccc(F)cc1F [ONC206, reference compound] |  |  |  |  |  |  | 180 | 260 | 830 |  |  | 
Cn1c2c(c(=O)n(Cc3ccc(Cl)cc3)c1=O)CN(Cc1cccc(C#N)c1)CC2 [TR‐57] | 0.886 | 3 | 1.52 | 61 | 4.1 | 1.4 |  |  |  | 1.24 | 1.71 | AUC ([3]; male, mouse, plasma, po, ICR mice, 10 mg/kg orally, read-out: exposure (AUC)): 2.71 µg·h/mL; AUC(0-inf) [3, 16]: 2.71 µg·h/mL; caspase‐3/7 activity [2]: no increase; PARP cleavage [2]: no increase; TUFM and TFAM protein levels by 24 h [6]: complete or near‐complete loss; time at which TUFM and TFAM protein levels began to decline [6]: ~ 6 h
C#Cc1cccc(CN2CCC3=C(C2)C(=O)N(Cc2ccc(Cl)cc2)C2=NCCN23)c1 [TR‐27] | 0.155 | 0.35 | 1.06 | 33 | 0.29 | 1.16 |  |  |  | 0.154 | 0.127 | 
N#Cc1cccc(CN2CCC3=C(C2)C(=O)N(Cc2ccc(Cl)cc2)C2=NCC(F)(F)CN23)c1 [TR‐106] |  |  |  |  |  |  | 120 | 430 | 1100 |  |  | 
Cc1nc2c(c(=O)n1Cc1ccc(Cl)cc1)CN(Cc1cccc(C#N)c1)CC2 [TR‐97] |  |  |  |  |  |  | 53 | 104 | 340 |  |  | 
N#Cc1cccc(CC2CCC3=C(C2)C(=O)N(Cc2ccc(C(F)(F)F)cc2)C2=NCCN23)c1 (stereo not shown) [TR‐109] |  |  |  |  |  |  | 4600 | 2200 | 670 |  |  | 
O=C1C2=C(CCN(Cc3ccccc3)C2)N2CCN=C2N1Cc1ccc(C(F)(F)F)cc1 [ONC212/TR‐31, reference compound] | 0.638 | 2.2 | 1.68 | 14 | 0.64 | 1.49 | 27 | 80 | 310 | 0.95 | 0.282 | AUC(0-inf) [3, 16]: 0.449 µg·h/mL; reported t 1/2 ([4]; oral dose of 125 mg/kg): 4.3 h

From PMC9354705, “Characterization of TR‐107, a novel chemical activator of the human mitochondrial protease ClpP” (Pharmacology Research & Perspectives, 2022)
